Data: patent US12029725B2 (priority 2019, dated 2024)
“Also recorded” adds a separate entry of the source. Where two headings read alike, the source gives them in different places.

Legend:
[1] = test system: pain due to moderate to severe osteoarthritis of the knee; assay: Phase 1b double-blind study of intra-articular resiniferatoxin versus placebo: efficacy (WOMAC and NPRS pain scores); format: in vivo, human; conditions: for Patient reported WOMAC A1 and NPRS pain scores: all dose levels
Experimental: The study, described as “Phase 1b double-blind study assesses safety and preliminary efficacy of intra-articular administration of resiniferatoxin versus placebo for the treatment of pain due to moderate to severe osteoarthritis of the knee,” was performed.
Subjects with moderate to severe osteoarthritis diagnosed based on ACR diagnostic criteria and X-ray imaging were enrolled in a phase 1b double-blind study to assess the safety, tolerability and preliminary efficacy of intra-articular administration of resiniferatoxin or placebo for the treatment of moderate to severe pain due to osteoarthritis of the knee. Patients met the following criteria: (1) baseline pain score in the index knee (WOMAC pain subscale question A1) of ≥5 but ≤9 during four weeks prior to enrollment; (2) mean NPRS score of ≥5 but ≤9 during 8 of 10 days prior to enrollment; and (3) pain lasted for at least 6 months prior to enrollment.
As of August 2019, the enrollment of all planned dose level cohorts was completed. 40 patients have enrolled in these dose-escalation cohorts, 30 receiving RTX and 10 receiving placebo (multicenter, randomized, double-blind, placebo controls). In each cohort, six patients received intraarticular RTX and two received a saline control (placebo arm). 69% are female and 31% are male. The median age is 62 (range 44-83), and the baseline NPRS A1 score was mean 6.5 (S.D. 1.5).
The patients were treated with a one-time intraarticular dose of resiniferatoxin (RTX) or saline placebo at escalating dose level cohorts of 5 μg, 12.5 μg, 20 μg and 30 μg in 5 or 10 mL in dose escalation cohorts. For each 8-patient cohort, the first patient was considered a sentinel patient and received open-label drug. Upon confirmation of safety in the sentinel patient, the remaining 7 patients in the cohort were enrolled in a blinded fashion, 2 patients receiving placebo and 5 patients receiving RTX. After confirmation of safety at each dose level, the next higher dose level was opened for enrollment. Patients were followed for safety and efficacy over a 12-week period. Patients had the option to provide additional follow-up to 52 weeks. Efficacy was assessed using the patient reported WOMAC pain scores and NPRS pain scores. As per protocol, the treatment assignment could be unblinded at week 12.

[2] = Pharmacokinetics of RTX after intra-articular injection in the Phase 1b study; format: in vivo, human; conditions: for Number of RTX subjects with quantifiable PK / Number of subjects with BQL of RTX: 6 subjects with PK measured; for Cmax / AUC(0-t): human, in vivo, other: intra-articular injection
[3] = test system: subjects with moderate to severe osteoarthritis of the knee; conditions: for Procedure-associated pain (post-procedural pain and injection site pain), patients reporting: RTX patients; for Procedure-associated pain reported as mild / Procedure-associated pain reported as moderate: RTX treated patients
[4] = 30 μg, Cohort 6, 30 μg/5 or 10 ml, subject with quantifiable PK

For `C=C(C)[C@]12C[C@@H](C)[C@@]34O[C@](Cc5ccccc5)(O[C@@H]1[C@@H]3C=C(COC(=O)Cc1ccc(O)c(OC)c1)C[C@]1(O)C(=O)C(C)=C[C@@H]41)O2` [RTX, resiniferatoxin], the “Pain at walking (10 point WOMAC pain scale), mean pain score lower versus control” value ([1]; 5 μg RTX, Day 84) was 4.7 points, the “WOMAC A-C pain index, least squares mean difference versus placebo (MMRM)” value ([1]; 12.5 μg dose, 12 weeks, p=0.016, N=6) was −14.20 and the “WOMAC A1 score, least squares mean difference versus placebo (MMRM)” value ([1]; 12.5 μg dose, 12 weeks, p=0.029, N=6) was −2.70. For the same compound, the “NPRS score, least squares mean difference versus placebo (MMRM)” value ([1]; 12.5 μg dose, 12 weeks, p=0.051, N=6) was −2.29, the “Weekly average NPRS pain score, mean change (standard deviation) from baseline to week 12” value ([1]; Cohort 4, 12.5 μg/5 ml, FIG. 2) was −5.30 (1.94) and the “Weekly average WOMAC question A1, mean change (standard deviation) from baseline to week 12” value ([1]; Cohort 4, 12.5 μg/5 ml, FIG. 3) was −5.67 (1.51). The “Patient reported WOMAC A1 and NPRS pain scores” value ([1]; all cohorts incl. volume and dose expansion cohorts) was “reduction”, the “Improvements in patients of all dose groups” value ([1]; all dose groups, ongoing trial) was “rapid and sustainable improvements” and the “Patient reported WOMAC A1 and NPRS pain scores” value ([1]; dose escalation cohorts (N=40), available unblinded data) was “reduction”. For the same compound, the “Sustained clinical benefits / pain reduction sustained over time” value ([1]; lowest dose (5 μg), determined at 84 days) was “sustained clinical benefits; also recorded: sustained over time”, the “Onset of pain relief” value ([1]; lowest dose tested, single 5 μg RTX injection into the knee joint) was “day following injection; also recorded: the day following drug administration” and the “Patients reporting positive clinical benefits in pain reduction” value ([1]; patients treated with the active drug, to date) was “a majority”. For the same compound, the “Patients achieving >70% reduction in pain versus baseline, NPRS score” value ([1]; pooled RTX-treated patients) was 41%, the “Patients achieving >70% reduction in pain versus baseline, WOMAC A1 score” value ([1]; pooled RTX-treated patients) was 54% and the “Weekly average NPRS pain score, change from baseline to week 12, difference versus pooled placebo” value ([1]; week 12, range over dose level cohorts) was −0.34 to −2.29. The “WOMAC question A1 (pain on walking on flat surface), least squares mean difference in change from baseline relative to placebo” value ([1]; week 12, range over dose level cohorts, 9 placebo, 28 RTX) was −0.38 to −2.70 points, the “Number of RTX subjects with quantifiable PK” value (“Number of RTX subjects” below) ([2]; Cohort 1, 5 μg/5 ml) was 1 and the “Number of subjects with BQL of RTX” value ([2]; Cohort 1, 5 μg/5 ml) was 5. The “Number of RTX subjects” value ([2]; Cohort 4, 12.5 μg/5 ml) was 0, the “Number of subjects with BQL of RTX” value ([2]; Cohort 4, 12.5 μg/5 ml) was 6 and the “Number of RTX subjects” value ([2]; Cohort 4a, 12.5 μg/10 ml) was 1. For the same compound, the “Number of subjects with BQL of RTX” value ([2]; Cohort 4a, 12.5 μg/10 ml) was 5, the “Number of RTX subjects” value ([2]; Cohort 5, 20 μg/5 ml) was 2 and the “Number of subjects with BQL of RTX” value ([2]; Cohort 5, 20 μg/5 ml) was 4. For the same compound, the “Number of RTX subjects” value ([2]; Cohort 6, 30 μg/5 or 10 ml) was 1, the “Number of subjects with BQL of RTX” value ([2]; Cohort 6, 30 μg/5 or 10 ml) was 5 and the “Detectability of RTX (pharmacokinetic data)” value ([2]; all PK cohorts, intra-articular injection) was “undetectable in most patients”. It also gave a Cmax ([2]; 5 μg, Cohort 1, 5 μg/5 ml, subject with quantifiable PK) of 0.121 ng/mL, an AUC(0-t) ([2]; 5 μg, Cohort 1, 5 μg/5 ml, subject with quantifiable PK, read-out: AUC (0-6 hr)) of 0.509 ng·h/mL and a Cmax ([2]; 12.5 μg, Cohort 4a, 12.5 μg/10 ml, subject with quantifiable PK) of 0.103 ng/mL. The AUC(0-t) ([2]; 12.5 μg, Cohort 4a, 12.5 μg/10 ml, subject with quantifiable PK, read-out: AUC (0-6 hr)) was 0.146 ng·h/mL, the Cmax ([2]; 20 μg, Cohort 5, 20 μg/5 ml, first subject with quantifiable PK) was 0.071 ng/mL and the AUC(0-t) [2, 4] was 0.0854 ng·h/mL. The Cmax [2, 4] was 0.0878 ng/mL, the DMC assessment ([3]; Cohort 1, 5 μg) was “No DLTs” and the “Notable AE's” value ([3]; Cohort 1, 5 μg) was “None”. The DMC assessment ([3]; Cohort 2, 12.5 μg) was “No DLTs”, the “Notable AE's” value ([3]; Cohort 2, 12.5 μg) was “None” and the DMC assessment ([3]; Cohort 3, 12.5 μg (in 10 ml)) was “No DLTs”. The “Notable AE's” value ([3]; Cohort 3, 12.5 μg (in 10 ml)) was “None”, the DMC assessment ([3]; Cohort 4, 20 μg) was “No DLTs” and the “Notable AE's” value ([3]; Cohort 4, 20 μg) was “None”. The DMC assessment ([3]; Cohort 5, 30 μg) was “No DLTs”, the “Notable AE's” value ([3]; Cohort 5, 30 μg) was “None” and the “TEAE Areflexia, Mild: frequency” value ([3]; RTX All Cohorts (N = 57)) was “(3.5%)”. The “TEAE Areflexia, Mild: number of subjects” value ([3]; RTX All Cohorts (N = 57)) was 2, the “TEAE Areflexia, Moderate: frequency” value ([3]; RTX All Cohorts (N = 57)) was “(3.5%)” and the “TEAE Areflexia, Moderate: number of subjects” value ([3]; RTX All Cohorts (N = 57)) was 2. The “TEAE Arthralgia, Mild: frequency” value ([3]; RTX All Cohorts (N = 57)) was “(7.0%)”, the “TEAE Arthralgia, Mild: number of subjects” value ([3]; RTX All Cohorts (N = 57)) was 4 and the “TEAE Arthralgia, Moderate: frequency” value ([3]; RTX All Cohorts (N = 57)) was “(1.8%)”. The “TEAE Arthralgia, Moderate: number of subjects” value ([3]; RTX All Cohorts (N = 57)) was 1, the “TEAE EOG QTc prolonged, Mild: frequency” value ([3]; RTX All Cohorts (N = 57)) was “(5.3%)” and the “TEAE EOG QTc prolonged, Mild: number of subjects” value ([3]; RTX All Cohorts (N = 57)) was 3. For the same compound, the “TEAE Headache, Mild: frequency” value ([3]; RTX All Cohorts (N = 57)) was “(5.3%)”, the “TEAE Headache, Mild: number of subjects” value ([3]; RTX All Cohorts (N = 57)) was 3 and the “TEAE Hypertension, Mild: frequency” value ([3]; RTX All Cohorts (N = 57)) was “(7.0%)”. The “TEAE Hypertension, Mild: number of subjects” value ([3]; RTX All Cohorts (N = 57)) was 4, the “TEAE Hypertension, Moderate: frequency” value ([3]; RTX All Cohorts (N = 57)) was “(7.0%)” and the “TEAE Hypertension, Moderate: number of subjects” value ([3]; RTX All Cohorts (N = 57)) was 4. The “TEAE Hypoesthesia, Mild: frequency” value ([3]; RTX All Cohorts (N = 57)) was “(8.8%)”, the “TEAE Hypoesthesia, Mild: number of subjects” value ([3]; RTX All Cohorts (N = 57)) was 5 and the “TEAE Nausea, Mild: frequency” value ([3]; RTX All Cohorts (N = 57)) was “(31.6%)”. For the same compound, the “TEAE Nausea, Mild: number of subjects” value ([3]; RTX All Cohorts (N = 57)) was 18, the “TEAE Nausea, Moderate: frequency” value ([3]; RTX All Cohorts (N = 57)) was “(3.5%)” and the “TEAE Nausea, Moderate: number of subjects” value ([3]; RTX All Cohorts (N = 57)) was 2. For the same compound, the “TEAE Procedural pain, Mild: frequency” value ([3]; RTX All Cohorts (N = 57)) was “(64.9%)”, the “TEAE Procedural pain, Mild: number of subjects” value ([3]; RTX All Cohorts (N = 57)) was 37 and the “TEAE Procedural pain, Moderate: frequency” value ([3]; RTX All Cohorts (N = 57)) was “(26.3%)”. For the same compound, the “TEAE Procedural pain, Moderate: number of subjects” value ([3]; RTX All Cohorts (N = 57)) was 15, the “TEAE Vomiting, Mild: frequency” value ([3]; RTX All Cohorts (N = 57)) was “(14.0%)” and the “TEAE Vomiting, Mild: number of subjects” value ([3]; RTX All Cohorts (N = 57)) was 8. The “TEAE Vomiting, Moderate: frequency” value ([3]; RTX All Cohorts (N = 57)) was “(3.5%)”, the “TEAE Vomiting, Moderate: number of subjects” value ([3]; RTX All Cohorts (N = 57)) was 2 and the Dose-limiting toxicities ([3]; all cohorts) was “No dose-limiting toxicities”. For the same compound, the Maximum tolerated dose ([3]; all cohorts) was “not identified”, the “Relationship between adverse events and dose” value ([3]; all cohorts) was “no apparent relationship” and the “Procedure-associated pain (post-procedural pain and injection site pain), patients reporting” value ([3]; all cohorts) was 91%. The “Procedure-associated pain reported as mild” value ([3]; all cohorts) was 65%, the “Procedure-associated pain reported as moderate” value ([3]; all cohorts) was 26% and the Dose-limiting toxicities ([3]; dose escalation cohorts (N=40)) was “No dose-limiting toxicities”. For the same compound, the Maximum tolerated dose ([3]; dose escalation cohorts (N=40)) was “not identified”, the “Relationship between adverse events and dose” value ([3]; dose escalation cohorts (N=40)) was “no apparent relationship” and the “Procedure-associated pain (post-procedural pain and injection site pain), patients reporting” value ([3]; dose escalation cohorts (N=40)) was 100%. The “Procedure-associated pain reported as mild” value ([3]; dose escalation cohorts (N=40)) was 55%, the “Procedure-associated pain reported as moderate” value ([3]; dose escalation cohorts (N=40)) was 45% and the “Adverse events of interest” value ([3]; initial results, any dose group) was “nor adverse events of interest noted”. For the same compound, the “Dose limiting toxicities (DLTs)” value ([3]; initial results, any dose group, to date) was “No dose limiting toxicities”.
